Each molecule was assayed against human PDE10A2 (Homo sapiens (Human), UniProt Q9Y233) (assay: PDE10 fluorescence polarization (IMAP FP) inhibition assay). Settings: human PDE10A2 from transfected AD293 cells; FAM-labeled cAMP 50 nM; apparent inhibition constant; read-out: PDE10A Ki.
Type: biochemical
Summary of the method: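 Cytoplasmic lysate of AD293 cells transiently expressing human PDE10A2 (enzyme level giving 20% conversion) incubated with 50 nM FAM-cAMP in pH 7.2 Tris/MgCl2 buffer, 30 min at room temperature. IMAP binding solution added, FP read after ≥1 h; 10-point 3-fold compound titrations fitted to a four-parameter equation.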

human PDE10A2, sequence (Q9Y233 267-1055): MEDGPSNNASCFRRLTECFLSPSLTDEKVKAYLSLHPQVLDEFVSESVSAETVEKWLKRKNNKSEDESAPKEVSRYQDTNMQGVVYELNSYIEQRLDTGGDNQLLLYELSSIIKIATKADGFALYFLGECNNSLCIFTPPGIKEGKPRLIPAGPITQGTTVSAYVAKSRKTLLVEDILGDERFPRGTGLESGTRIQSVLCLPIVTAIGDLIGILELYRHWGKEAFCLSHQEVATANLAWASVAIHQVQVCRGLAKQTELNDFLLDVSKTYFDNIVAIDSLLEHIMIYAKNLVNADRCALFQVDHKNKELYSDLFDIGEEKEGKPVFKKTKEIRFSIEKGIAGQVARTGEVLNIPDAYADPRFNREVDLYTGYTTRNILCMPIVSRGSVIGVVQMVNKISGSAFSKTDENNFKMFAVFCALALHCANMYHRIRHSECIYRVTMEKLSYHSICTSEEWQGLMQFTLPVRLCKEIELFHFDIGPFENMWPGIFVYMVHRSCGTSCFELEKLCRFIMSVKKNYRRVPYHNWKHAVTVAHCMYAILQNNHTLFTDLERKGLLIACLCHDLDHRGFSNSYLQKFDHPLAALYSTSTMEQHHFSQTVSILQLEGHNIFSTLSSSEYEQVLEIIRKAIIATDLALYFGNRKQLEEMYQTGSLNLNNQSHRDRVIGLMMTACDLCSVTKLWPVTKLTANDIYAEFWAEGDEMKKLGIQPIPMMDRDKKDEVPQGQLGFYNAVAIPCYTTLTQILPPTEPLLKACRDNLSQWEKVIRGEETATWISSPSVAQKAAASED

Row | Ki [nM] | Compound
1 | 12.1 | Cc1ccc([C@H]2C[C@@H]2COc2nc(C)ncc2C2CCC(F)(F)CC2)nc1 [Example 209, 5-(4,4-Difluorocyclohexyl)-2-methyl-4-(((1S,2S)-2-(5-methylpyridin-2-yl)cyclopropyl)methoxy)pyrimidine]
2 | 7.85 | Cc1ccc([C@H]2C[C@@H]2COc2nc(C)ncc2[C@]2(F)CC[C@@H](O)CC2)nc1 [Example 210, (trans)-4-Fluoro-4-(2-methyl-4-(((1S,2S)-2-(5-methylpyridin-2-yl)cyclopropyl)methoxy)pyrimidin-5-yl)cyclohexanol]
3 | 19.4 | COc1ccc([C@H]2C[C@@H]2COc2nc(C)ncc2C2(F)CCCCC2)nc1 [Example 211, 5-(1-fluorocyclohexyl)-4-(((1S,2S)-2-(5-methoxypyridin-2-yl)cyclopropyl)methoxy)-2-methylpyrimidine]
4 | 12.4 | Cc1ccc([C@H]2C[C@@H]2COc2nc(C)ncc2[C@H]2CC[C@@](C)(O)CC2)nc1 [Example 212, (cis)1-Methyl-4-(2-methyl-4-(((1S,2S)-2-(5-methylpyridin-2-yl)cyclopropyl)methoxy)pyrimidin-5-yl)cyclohexanol]
5 | 6.86 | Cc1ccc([C@H]2C[C@@H]2COc2nc(C)ncc2[C@H]2CC[C@](C)(O)CC2)nc1 [Example 213, (trans)1-Methyl-4-(2-methyl-4-(((1S,2S)-2-(5-methylpyridin-2-yl)cyclopropyl)methoxy)pyrimidin-5-yl)cyclohexanol]
6 | 19.4 | CC[C@]1(O)CC[C@@H](c2cnc(C)nc2OC[C@H]2C[C@@H]2c2ccc(C)cn2)CC1 [Example 214, (cis)1-Ethyl-4-(2-methyl-4-(((1S,2S)-2-(5-methylpyridin-2-yl)cyclopropyl)methoxy)pyrimidin-5-yl)cyclohexanol]
7 | 15.3 | CC[C@]1(O)CC[C@H](c2cnc(C)nc2OC[C@H]2C[C@@H]2c2ccc(C)cn2)CC1 [Example 215, (trans)1-Ethyl-4-(2-methyl-4-(((1S,2S)-2-(5-methylpyridin-2-1)cyclopropyl)methoxy)pyrimidin-5-yl)cyclohexanol]
8 | 7.9 | CCOC(=O)[C@H]1CC[C@@H](c2cnc(C)nc2OC[C@H]2C[C@@H]2c2ccc(OC)cn2)CC1 [Example 216, cis-Ethyl4-(4-(((1S,2S)-2-(5-methoxypyridin-2-yl)cyclopropyl)methoxy)-2-methylpyrimidin-5-yl)cyclohexanecarboxylate]
9 | 5.29 | COc1ccc([C@H]2C[C@@H]2COc2nc(C)ncc2[C@H]2CC[C@@H](C(=O)O)CC2)nc1 [Example 217, cis-4-(4-(((1S,2S)-2-(5-Methoxypyridin-2-yl)cyclopropyl)methoxy)-2-methylpyrimidin-5-yl)cyclohexanecarboxylic acid]
10 | 12.6 | Cc1ccc([C@H]2C[C@@H]2COc2nc(C)ncc2[C@H]2CC[C@@H](C(C)(C)O)CC2)nc1 [Example 221, (cis)2-(4-(2-methyl-4-(((1S,2S)-2-(5-methylpyridin-2-yl)cyclopropyl)methoxy)pyrimidin-5-yl)cyclohexyl)propan-2-ol]
11 | 0.1 | COc1ccc([C@H]2C[C@@H]2COc2nc(C)ncc2-c2ccc(-c3nn[nH]n3)cc2)nc1 [Example 222, 5-(4-(1H-tetrazol-5-yl)phenyl)-4-(((1S,2S)-2-(5-methoxypyridin-2-yl)cyclopropyl)methoxy)-2-methylpyrimidine]
12 | 2.02 | COc1ccc([C@H]2C[C@@H]2COc2nc(C)ncc2-c2ccc(-c3nnn(C)n3)cc2)nc1 [Example 223, 4-(((1S,2S)-2-(5-methoxypyridin-2-yl)cyclopropyl)methoxy)-2-methyl-5-(4-(2-methyl-2H-tetrazol-5-yl)phenyl)pyrimidine]
13 | 1.08 | COc1ccc([C@H]2C[C@@H]2COc2nc(C)ncc2-c2ccc(-c3nnnn3C)cc2)nc1 [Example 224, 4-(((1S,2S)-2-(5-methoxypyridin-2-yl)cyclopropyl)methoxy)-2-methyl-5-(4-(1-methyl-1H-tetrazol-5-yl)phenyl)pyrimidine]
14 | 1.42 | CCn1nnc(-c2ccc(-c3cnc(C)nc3OC[C@H]3C[C@@H]3c3ccc(OC)cn3)cc2)n1 [Example 225, 5-(4-(2-ethyl-2H-tetrazol-5-yl)phenyl)-4-(((1S,2S)-2-(5-methoxypyridin-2-yl)cyclopropyl)methoxy)-2-methylpyrimidine]
15 | 0.77 | CCn1nnnc1-c1ccc(-c2cnc(C)nc2OC[C@H]2C[C@@H]2c2ccc(OC)cn2)cc1 [Example 226, 5-(4-(1-ethyl-1H-tetrazol-5-yl)phenyl)-4-(((1S,2S)-2-(5-methoxypyridin-2-yl)cyclopropyl)methoxy)-2-methylpyrimidine]
16 | 3.3 | COc1ccc([C@H]2C[C@@H]2COc2nc(C)ncc2-c2ccc(-c3nnn(C(F)F)n3)cc2)nc1 [Example 227, 5-(4-(2-(difluoromethyl)-2H-tetrazol-5-yl)phenyl)-4-(((1S,2S)-2-(5-methoxypyridin-2-yl)cyclopropyl)methoxy)-2-methylpyrimidine]

Row | Ki [nM] | Compound
17 | 2.06 | COc1ccc([C@H]2C[C@@H]2COc2nc(C)ncc2-c2ccc(-c3nnnn3C(F)F)cc2)nc1 [Example 228, 5-(4-(1-(difluoromethyl)-1H-tetrazol-5-yl)phenyl)-4-(((1S,2S)-2-(5-methoxypyridin-2-yl)cyclopropyl)methoxy)-2-methylpyrimidine]
18 | 0.13 | COc1ccc([C@H]2C[C@@H]2COc2nc(C)ncc2-c2ccc(-c3nn[nH]n3)nc2)nc1 [Example 229, 5-(6-(2H-tetrazol-5-yl)pyridin-3-yl)-4-(((1S,2S)-2-(5-methoxypyridin-2-yl)cyclopropyl)methoxy)-2-methylpyrimidine]
19 | 1.64 | COc1ccc([C@H]2C[C@@H]2COc2nc(C)ncc2-c2ccc(-c3nnn(C)n3)nc2)nc1 [Example 230, 4-(((1S,2S)-2-(5-methoxypyridin-2-yl)cyclopropyl)methoxy)-2-methyl-5-(6-(2-methyl-2H-tetrazol-5-yl)pyridin-3-yl)pyrimidine]
20 | 1.78 | COc1ccc([C@H]2C[C@@H]2COc2nc(C)ncc2-c2ccc(-c3nnnn3C)nc2)nc1 [Example 231, 4-(((1S,2S)-2-(5-methoxypyridin-2-yl)cyclopropyl)methoxy)-2-methyl-5-(6-(1-methyl-1H-tetrazol-5-yl)pyridin-3-yl)pyrimidine]
21 | 0.77 | CCn1nnc(-c2ccc(-c3cnc(C)nc3OC[C@H]3C[C@@H]3c3ccc(OC)cn3)cn2)n1 [Example 232, 5-(6-(2-ethyl-2H-tetrazol-5-yl)pyridin-3-yl)-4-(((1S,2S)-2-(5-methoxypyridin-2-yl)cyclopropyl)methoxy)-2-methylpyrimidine]
22 | 1.16 | CCn1nnnc1-c1ccc(-c2cnc(C)nc2OC[C@H]2C[C@@H]2c2ccc(OC)cn2)cn1 [Example 233, 5-(6-(1-ethyl-1H-tetrazol-5-yl)pyridin-3-yl)-4-(((1S,2S)-2-(5-methoxypyridin-2-yl)cyclopropyl)methoxy)-2-methylpyrimidine]
23 | 9.43 | COc1ccc([C@H]2C[C@@H]2COc2nc(C)ncc2-c2nn[nH]n2)nc1 [Example 234, 4-(((1S,2S)-2-(5-methoxypyridin-2-yl)cyclopropyl)methoxy)-2-methyl-5-(2H-tetrazol-5-yl)pyrimidine]
24 | 21.5 | COc1ccc([C@H]2C[C@@H]2COc2nc(C)ncc2-c2nnn(C)n2)nc1 [Example 235, 4-(((1S,2S)-2-(5-methoxypyridin-2-yl)cyclopropyl)methoxy)-2-methyl-5-(2-methyl-2H-tetrazol-5-yl)pyrimidine]
25 | 19.4 | CCn1nnc(-c2cnc(C)nc2OC[C@H]2C[C@@H]2c2ccc(OC)cn2)n1 [Example 236, 5-(2-ethyl-2H-tetrazol-5-yl)-4-(((1S,2S)-2-(5-methoxypyridin-2-yl)cyclopropyl)methoxy)-2-methylpyrimidine]
26 | 32.9 | COc1ccc([C@H]2C[C@@H]2COc2nc(C)ncc2-c2nnn(C(F)F)n2)nc1 [Example 237, 5-(2-(difluoromethyl)-2H-tetrazol-5-yl)-4-(((1S,2S)-2-(5-methoxypyridin-2-yl)cyclopropyl)methoxy)-2-methylpyrimidine]
27 | 22.9 | COc1ccc([C@H]2C[C@@H]2COc2nc(C)ncc2-c2cc(=O)[nH]n2C)nc1 [Example 238, 5-(4-(((1S,2S)-2-(5-methoxypyridin-2-yl)cyclopropyl)methoxy)-2-methylpyrimidin-5-yl)-1-methyl-1,2-dihydropyrazol-3-one]
28 | 7.7 | COc1ccc([C@H]2C[C@@H]2COc2nc(C)ncc2-c2cc(=O)n(C)n2C)nc1 [Example 239, 5-(4-(((1S,2S)-2-(5-methoxypyridin-2-yl)cyclopropyl)methoxy)-2-methylpyrimidin-5-yl)-1,2-dimethyl-1,2-dihydropyrazol-3-one]
29 | 29.9 | COc1ccc([C@H]2C[C@@H]2COc2nc(C)ncc2-c2cc(OC)nn2C)nc1 [Example 240, 5-(3-methoxy-1-methyl-1H-pyrazol-5-yl)-4-(((1S,2S)-2-(5-methoxypyridin-2-yl)cyclopropyl)methoxy)-2-methylpyrimidine]
30 | 0.9 | COc1ccc([C@H]2C[C@@H]2COc2nc(C)ncc2-c2cc(=O)[nH][nH]2)nc1 [Example 241, 5-(4-(((1S,2S)-2-(5-methoxypyridin-2-yl)cyclopropyl)methoxy)-2-methylpyrimidin-5-yl)-1,2-dihydropyrazol-3-one]
31 | 2.36 | COc1ccc([C@H]2C[C@@H]2COc2nc(C)ncc2-c2c[nH]oc2=O)nc1 [Example 242, 4-(4-(((1S,2S)-2-(5-methoxypyridin-2-yl)cyclopropyl)methoxy)-2-methylpyrimidin-5-yl)isoxazol-5(2H)-one]
32 | 6.59 | COc1ccc([C@H]2C[C@@H]2COc2nc(C)ncc2-c2cn(C)oc2=O)nc1 [Example 243, 4-(4-(((1S,2S)-2-(5-methoxypyridin-2-yl)cyclopropyl)methoxy)-2-methylpyrimidin-5-yl)-2-methylisoxazol-5(2H)-one]

From patent publication US9663513B2, “Pyrimidine PDE10 inhibitors” (Merck Sharp & Dohme Corp., priority 2012, dated 2017)
